# Species: Rattus norvegicus
# Experiment: DrugMatrix - Regimen: Daily Repeat
# Assay type: toxicity, organism-based, Sprague-Dawley
# Parameters: regimen Daily Repeat, gender Male, age 6-8 weeks
# Conditions: in vivo, po, route oral GAVAGE, vehicle 100 % WATER; for ABSOLUTE BASOPHIL / ABSOLUTE EOSINOPHIL / ABSOLUTE LYMPHOCYTE / ABSOLUTE MONOCYTE / ABSOLUTE SEGMENTED NEUTROPHIL / BASOPHIL / EOSINOPHIL / ERYTHROCYTE COUNT / HEMATOCRIT / HEMOGLOBIN / LEUKOCYTE COUNT / LYMPHOCYTE / MEAN CORPUSCULAR HEMOGLOBIN / MEAN CORPUSCULAR HEMOGLOBIN CONCENTRATION / MEAN CORPUSCULAR VOLUME / MONOCYTE / NEUTROPHIL / NUCLEATED RED BLOOD CELLS / PLATELET COUNT: tissue Blood; for ALANINE AMINOTRANSFERASE / ALBUMIN / ALKALINE PHOSPHATASE / ASPARTATE AMINOTRANSFERASE / BLOOD UREA NITROGEN / CARBON DIOXIDE / CHLORIDE / CHOLESTEROL / CREATINE PHOSPHOKINASE / CREATININE / GLUCOSE / LACTATE DEHYDROGENASE / LIPASE / PHOSPHORUS / POTASSIUM / SODIUM / TOTAL BILIRUBIN / TOTAL PROTEIN / URIC ACID: tissue Plasma
# [1] = 20 mg/kg, 72 h, dose level Low, time 3 day
# [2] = 20 mg/kg, 120 h, dose level Low, time 5 day
# [3] = 2000 mg/kg, 72 h, dose level High, time 3 day
# [4] = 2000 mg/kg, 120 h, dose level High, time 5 day
smiles,measurement,setting,value
C[C@H]1O[C@H](O[C@H]2[C@H](O)[C@@H](O)[C@@H](O[C@H]3[C@H](O)[C@@H](O)C(O)O[C@@H]3CO)O[C@@H]2CO)[C@H](O)[C@@H](O)[C@@H]1N[C@H]1C=C(CO)[C@@H](O)[C@H](O)[C@H]1O (some centres not stated) [ACARBOSE],ABSOLUTE BASOPHIL,[1],0 CELLS/uL
same,ABSOLUTE EOSINOPHIL,[1],64.67 CELLS/uL
same,ABSOLUTE LYMPHOCYTE,[1],10120.67 CELLS/uL
same,ABSOLUTE MONOCYTE,[1],0 CELLS/uL
same,ABSOLUTE SEGMENTED NEUTROPHIL,[1],948 CELLS/uL
same,BASOPHIL,[1],0%
same,EOSINOPHIL,[1],0.67%
same,ERYTHROCYTE COUNT,[1],5.03 x10E6/uL
same,HEMATOCRIT,[1],31.8%
same,HEMOGLOBIN,[1],12.87 G/DL
same,LEUKOCYTE COUNT,[1],11.13 x10E3/uL
same,LYMPHOCYTE,[1],91.33%
same,MEAN CORPUSCULAR HEMOGLOBIN,[1],25.6 pg
same,MEAN CORPUSCULAR HEMOGLOBIN CONCENTRATION,[1],40.47 G/DL
same,MEAN CORPUSCULAR VOLUME,[1],63.17 fL
same,MONOCYTE,[1],0%
same,NEUTROPHIL,[1],8%
same,NUCLEATED RED BLOOD CELLS,[1],0 /100WBC
same,PLATELET COUNT,[1],1088.33 x10E3/uL
same,ALANINE AMINOTRANSFERASE,[1],51.33 u/L
same,ALBUMIN,[1],4.1 G/DL
same,ALKALINE PHOSPHATASE,[1],389.33 u/L
same,ASPARTATE AMINOTRANSFERASE,[1],87.67 u/L
same,BLOOD UREA NITROGEN,[1],16.67 mg/dL
same,CARBON DIOXIDE,[1],24.33 mmol/L
same,CHLORIDE,[1],102.33 MEQ/L
same,CHOLESTEROL,[1],70.33 mg/dL
same,CREATINE PHOSPHOKINASE,[1],377 u/L
same,CREATININE,[1],0.18 mg/dL
same,GLUCOSE,[1],148.33 mg/dL
same,LACTATE DEHYDROGENASE,[1],368.33 u/L
same,LIPASE,[1],8.33 u/L
same,PHOSPHORUS,[1],14.03 mg/dL
same,POTASSIUM,[1],6.96 MEQ/L
same,SODIUM,[1],145.97 MEQ/L
same,TOTAL BILIRUBIN,[1],0.23 mg/dL
same,TOTAL PROTEIN,[1],5.73 G/DL
same,URIC ACID,[1],1.43 mg/dL
same,ABSOLUTE BASOPHIL,[2],0 CELLS/uL
same,ABSOLUTE EOSINOPHIL,[2],33.67 CELLS/uL
same,ABSOLUTE LYMPHOCYTE,[2],11112 CELLS/uL
same,ABSOLUTE MONOCYTE,[2],101.33 CELLS/uL
same,ABSOLUTE SEGMENTED NEUTROPHIL,[2],919.67 CELLS/uL
same,BASOPHIL,[2],0%
same,EOSINOPHIL,[2],0.33%
same,ERYTHROCYTE COUNT,[2],5.14 x10E6/uL
same,HEMATOCRIT,[2],33.7%
same,HEMOGLOBIN,[2],13.33 G/DL
same,LEUKOCYTE COUNT,[2],12.17 x10E3/uL
same,LYMPHOCYTE,[2],91%
same,MEAN CORPUSCULAR HEMOGLOBIN,[2],26 pg
same,MEAN CORPUSCULAR HEMOGLOBIN CONCENTRATION,[2],39.57 G/DL
same,MEAN CORPUSCULAR VOLUME,[2],65.63 fL
same,MONOCYTE,[2],1%
same,NEUTROPHIL,[2],7.67%
same,NUCLEATED RED BLOOD CELLS,[2],1 /100WBC
same,PLATELET COUNT,[2],1353.33 x10E3/uL
same,ALANINE AMINOTRANSFERASE,[2],52.33 u/L
same,ALBUMIN,[2],4.4 G/DL
same,ALKALINE PHOSPHATASE,[2],361.67 u/L
same,ASPARTATE AMINOTRANSFERASE,[2],74.67 u/L
same,BLOOD UREA NITROGEN,[2],17.33 mg/dL
same,CARBON DIOXIDE,[2],27.33 mmol/L
same,CHLORIDE,[2],101.33 MEQ/L
same,CHOLESTEROL,[2],74 mg/dL
same,CREATINE PHOSPHOKINASE,[2],186 u/L
same,CREATININE,[2],0.17 mg/dL
same,GLUCOSE,[2],180.33 mg/dL
same,LACTATE DEHYDROGENASE,[2],91.33 u/L
same,LIPASE,[2],8.67 u/L
same,PHOSPHORUS,[2],13.03 mg/dL
same,POTASSIUM,[2],6.7 MEQ/L
same,SODIUM,[2],145.5 MEQ/L
same,TOTAL BILIRUBIN,[2],0.2 mg/dL
same,TOTAL PROTEIN,[2],6.1 G/DL
same,URIC ACID,[2],1.6 mg/dL
same,ABSOLUTE BASOPHIL,[3],0 CELLS/uL
same,ABSOLUTE EOSINOPHIL,[3],47 CELLS/uL
same,ABSOLUTE LYMPHOCYTE,[3],15977.33 CELLS/uL
same,ABSOLUTE MONOCYTE,[3],106.67 CELLS/uL
same,ABSOLUTE SEGMENTED NEUTROPHIL,[3],835.67 CELLS/uL
same,BASOPHIL,[3],0%
same,EOSINOPHIL,[3],0.33%
same,ERYTHROCYTE COUNT,[3],5.96 x10E6/uL
same,HEMATOCRIT,[3],39.13%
same,HEMOGLOBIN,[3],15.37 G/DL
same,LEUKOCYTE COUNT,[3],16.97 x10E3/uL
same,LYMPHOCYTE,[3],94%
same,MEAN CORPUSCULAR HEMOGLOBIN,[3],25.73 pg
same,MEAN CORPUSCULAR HEMOGLOBIN CONCENTRATION,[3],39.27 G/DL
same,MEAN CORPUSCULAR VOLUME,[3],65.6 fL
same,MONOCYTE,[3],0.67%
same,NEUTROPHIL,[3],5%
same,NUCLEATED RED BLOOD CELLS,[3],1 /100WBC
same,PLATELET COUNT,[3],1523.33 x10E3/uL
same,ALANINE AMINOTRANSFERASE,[3],43 u/L
same,ALBUMIN,[3],4.63 G/DL
same,ALKALINE PHOSPHATASE,[3],324.67 u/L
same,ASPARTATE AMINOTRANSFERASE,[3],88 u/L
same,BLOOD UREA NITROGEN,[3],20.33 mg/dL
same,CARBON DIOXIDE,[3],28.33 mmol/L
same,CHLORIDE,[3],105.67 MEQ/L
same,CHOLESTEROL,[3],86 mg/dL
same,CREATINE PHOSPHOKINASE,[3],443.33 u/L
same,CREATININE,[3],0.21 mg/dL
same,GLUCOSE,[3],160.67 mg/dL
same,LACTATE DEHYDROGENASE,[3],447.33 u/L
same,LIPASE,[3],10 u/L
same,PHOSPHORUS,[3],14.07 mg/dL
same,POTASSIUM,[3],7.15 MEQ/L
same,SODIUM,[3],150.93 MEQ/L
same,TOTAL BILIRUBIN,[3],0.1 mg/dL
same,TOTAL PROTEIN,[3],6.8 G/DL
same,URIC ACID,[3],2.5 mg/dL
same,ABSOLUTE BASOPHIL,[4],0 CELLS/uL
same,ABSOLUTE EOSINOPHIL,[4],0 CELLS/uL
same,ABSOLUTE LYMPHOCYTE,[4],17167.33 CELLS/uL
same,ABSOLUTE MONOCYTE,[4],176.67 CELLS/uL
same,ABSOLUTE SEGMENTED NEUTROPHIL,[4],1189.33 CELLS/uL
same,BASOPHIL,[4],0%
same,EOSINOPHIL,[4],0%
same,ERYTHROCYTE COUNT,[4],5.82 x10E6/uL
same,HEMATOCRIT,[4],35.33%
same,HEMOGLOBIN,[4],14.37 G/DL
same,LEUKOCYTE COUNT,[4],18.53 x10E3/uL
same,LYMPHOCYTE,[4],92.33%
same,MEAN CORPUSCULAR HEMOGLOBIN,[4],24.67 pg
same,MEAN CORPUSCULAR HEMOGLOBIN CONCENTRATION,[4],40.67 G/DL
same,MEAN CORPUSCULAR VOLUME,[4],60.77 fL
same,MONOCYTE,[4],1%
same,NEUTROPHIL,[4],6.67%
same,NUCLEATED RED BLOOD CELLS,[4],0 /100WBC
same,PLATELET COUNT,[4],1249.33 x10E3/uL
same,ALANINE AMINOTRANSFERASE,[4],68 u/L
same,ALBUMIN,[4],4.23 G/DL
same,ALKALINE PHOSPHATASE,[4],385.33 u/L
same,ASPARTATE AMINOTRANSFERASE,[4],101.67 u/L
same,BLOOD UREA NITROGEN,[4],21.67 mg/dL
same,CARBON DIOXIDE,[4],33.67 mmol/L
same,CHLORIDE,[4],102.33 MEQ/L
same,CHOLESTEROL,[4],76.67 mg/dL
same,CREATINE PHOSPHOKINASE,[4],356 u/L
same,CREATININE,[4],0.23 mg/dL
same,GLUCOSE,[4],153.67 mg/dL
same,LACTATE DEHYDROGENASE,[4],345 u/L
same,LIPASE,[4],10.33 u/L
same,PHOSPHORUS,[4],12.8 mg/dL
same,POTASSIUM,[4],7.54 MEQ/L
same,SODIUM,[4],145.93 MEQ/L
same,TOTAL BILIRUBIN,[4],0.1 mg/dL
same,TOTAL PROTEIN,[4],5.93 G/DL
same,URIC ACID,[4],1.6 mg/dL

# — ChEMBL document CHEMBL3885881, “DrugMatrix”
